# “Also recorded” adds a separate entry of the source.
# Key:
# Impα3 = settings: 50 mM phosphate pH 7.0, 298 K; NLS-NUPR1L 10 μM, importin 4 μM
# Protocol: (§1) Fluorescence spectra were collected on a Cary Varian spectrofluorometer (Agilent, Santa Clara, CA, USA), interfaced with a Peltier unit. All experiments were carried out at 298 K. Following the standard protocols used in our laboratories, the samples were prepared the day before and left overnight at 278 K; before experiments, samples were left for 1 h at 298 K. A 1 cm pathlength quartz cell (Hellma, Kruibeke, Belgium) was used. The concentration of NLS-NUPR1L was 10 μM and those of both importins were 4 μM. Samples containing the isolated peptide, the isolated importin species, and a mixture of both (at those indicated concentrations) were prepared. Experiments were acquired in 50 mM phosphate buffer (pH 7.0). For the experiments with intact NUPR1L, a concentration of 15 μM (in protomer units) was used and that of each importin was 5 μM.
# (§2) Protein samples were excited either at 280 or 295 nm. The other experimental parameters and the buffers used have been described elsewhere. […]
# (§3) Far-UV CD spectra were collected on a Jasco J810 spectropolarimeter (Jasco, Tokyo, Japan) with a thermostated cell holder, and interfaced with a Peltier unit at 298 K. The instrument was periodically calibrated with (+)-10-camphorsulphonic acid. […] The concentration of each polypeptide (importin species and either NLS-NUPR1L or intact NUPR1L) was the same as that used in the fluorescence experiments (Section 4.4). […]
# ∆Impα3 = settings: 50 mM phosphate pH 7.0, 298 K; NUPR1L 15 μM with importin 5 μM, or NLS-NUPR1L 10 μM with importin 4 μM
# Protocol: as §1, §2, §3
# [1] = Conformation of isolated peptide by fluorescence, far-UV CD and NMR; assay type: physicochemical
# Protocol: Appropriate blank corrections were made in all spectra.
# All spectra were corrected by subtracting the corresponding baseline.
# An amount of 128 scans was acquired with 16 K acquisition points for the homonuclear 1D-^1H-NMR spectrum, and using a peptide concentration of 1.0–1.2 mM. Water signal was suppressed using the WATERGATE sequence. The spectrum was processed with Bruker TopSpin 2.1 (Bruker GmbH, Karlsruhe, Germany), after zero-filling and apodization with an exponential window.
# Two-dimensional spectra were acquired in each dimension in the phase-sensitive mode using the time-proportional-phase incrementation technique (TPPI) and a spectral width of 7801.69 Hz; the final concentration of the NLS-NUPR1L was the same as that used in the 1D experiments. Standard TOCSY (Total correlation spectroscopy) (with a mixing time of 80 ms) and NOESY experiments (with a mixing time of 250 ms) were performed by acquiring a data matrix size of 4096 × 512 points. The DIPSI (decoupling in the presence of scalar interactions) spin-lock sequence was used in the TOCSY experiments with 1 s of relaxation time. Typically, 96 scans were acquired per increment in the first dimension, and the residual water signal was removed using the WATERGATE sequence. NOESY spectra were collected typically with 96 scans per increment in the first dimension, with the residual water signal removed again by the WATERGATE sequence, and with 1 s of relaxation time. Data were zero-filled, resolution-enhanced with a square sine-bell window function optimized in each spectrum, baseline-corrected, and processed with the Bruker TopSpin 2.1 software (Bruker GmbH, Karlsruhe, Germany). The ^1H resonances were assigned by standard sequential assignment processes. The chemical shift values of Hα protons in random-coil regions were obtained from tabulated data, corrected by neighbouring residue effects.
substance,measurement,setting,value
Ac-RTRREQALRTNWPAPGGHERKVAQ-NH2 [NLS-NUPR1L],spectral changes upon binding to Impα3 (fluorescence and CD),Impα3,there were changes in the spectra upon addition of NLS-NUPR1L to each of the importin species
same,spectral changes upon binding to ∆Impα3 (fluorescence and/or far-UV CD),∆Impα3,there were changes in the spectra upon addition of NLS-NUPR1L to each of the importin species
same,far-UV CD minimum,"[1]; 298 K, 50 mM phosphate pH 7.0",~ 203 nm
same,fluorescence emission maximum,"[1]; excitation 280 nm, 50 mM phosphate pH 7.0, 298 K",353 nm
same,conformation in aqueous solution,"[1]; fluorescence, far-UV CD and NMR",random-coil conformation; also recorded: disordered in aqueous solution; also recorded: did not have any propensity to acquire helix- or turn-like conformations
